SMILES strings stand for the structures. pIC50: −log10 of the molar value.

This assay deals with tubulin (αβ-tubulin; colchicine site in β-subunit). As to the kind of experiment: [3H]colchicine competition on purified tubulin. It is filed as biochemical.

What is called pIC50 is −log10 of the IC50, conventionally taken in molar units. A low value points to a large IC50. As to `O=c1cc(-c2ccccc2)[nH]c2ccc3c(ccn3CC3CC3)c12` [MG-2477, 3-cyclopropylmethyl-7-phenyl-3H-pyrrolo[3,2-f]quinolin-9(6H)-one], the pIC50 is 6.05. The same measure for `COc1ccc(/C=C\c2cc(OC)c(OC)c(OC)c2)cc1O` [combretastatin A-4]: 5.92.

Source of the values: article PMC3234688 (2011).
